Test results reported in the supplement of paper PMC10949913.

Legend:
Assay in all cases: area under concentration-response curve (viability) (AUC (a.u.)); higher = less active
Details in all cases: 48 h
CU-ACC1 = test system: CU-ACC1
Method in brief: (§1)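 Three adrenocortical carcinoma cell lines in 1,536-well plates received 23 nL of each library compound at 11 concentrations and were read with CellTiter-Glo after 48 h, with 15 minutes at room temperature before measuring luminescence. Vehicle and empty-well controls served for per-plate normalisation. AC50 and area under the curve were extracted from fitted concentration-response curves, discarding all curve classes other than inhibitory or non-responding.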

NCI-H295R = test system: NCI-H295R
Method in brief: as §1

CU-ACC2 = test system: CU-ACC2
Method in brief: as §1

Compound	area under concentration-response curve (CU-ACC1)	area under concentration-response curve (NCI-H295R)	area under concentration-response curve (CU-ACC2)
Cc1cn2cc(C(=O)N(C)CCO)cc(N[C@@H]3CCOc4cccc(C)c43)c2n1	534	581	620
OC[C@H]1O[C@H](C[C@@H]1O)N2\C=C(F)/C(=O)NC2=O	516	497	584
COc1ccc([C@@H]2CC(=O)c3c(O)cc(O[C@@H]4O[C@H](CO[C@@H]5O[C@@H](C)[C@H](O)[C@@H](O)[C@H]5O)[C@@H](O)[C@H](O)[C@H]4O)cc3O2)cc1O	480	547	593
CN(CCOc1ccc(N[S+](C)(=O)[O-])cc1)CCc1ccc(N[S+](C)(=O)[O-])cc1	541	586	637
COc1ccc(C(=O)N2CCN(C(=O)/C=C/c3ccc(Br)cc3)CC2)cc1	499	536	638
OC[C@@H](O)[C@@H](O)[C@H](O)[C@@H](O)CO	562	592	645
C[C@]\12CCC(=O)\C=C1[C@@H]3C[C@@H]3[C@@H]4[C@@H]2CC[C@@]5(C)[C@H]4[C@@H]6C[C@@H]6[C@@]57CCC(=O)O7	509	549	602
O=C(O)CCNc1cc(N2CCc3ccccc3CC2)nc(-c2cccnc2)n1	538	533	636
C[C@]12COC(=O)C[C@@H]1CC[C@@H]1[C@@H]2CC[C@@]2(C)[C@H]1CC[C@]2(C)O	448	447	482
COC1=C(OC)C=C2CN(CCC3=CC=C(C=C3)[N]4N=NC(=N4)C5=CC(=C(OC)C=C5NC(=O)\C6=C\C(=O)C7=CC=CC=C7O6)OC)CCC2=C1	735	688	654
COc1ccc(COc2cc3oc(=O)c4cc(C(C)O)ccc4c3cc2OC)cc1 (stereo unspecified)	356	466	506
CCN(CC)CCCC(C)Nc1ccnc2cc(Cl)ccc12 (stereo unspecified)	464	583	638
CCOC(=O)N1CCN(/[N+]([O-])=N/Oc2ccc([N+](=O)[O-])cc2[N+](=O)[O-])CC1	544	521	644
CN1CC(=O)\N=C1\NC(=O)NC2=CC(=CC=C2)Cl	497	486	566
CC(C)NCC(O)c1ccc(O)c(O)c1 (stereo unspecified)	487	502	548
N[C@@H]1CONC1=O	533	559	497
C[S+](=O)([O-])c1ccc(Oc2cc(F)cc(C#N)c2)c2c1[C@H](O)C(F)(F)C2	571	603	645
COCCNCc1ccc(-c2cc3nccc(Oc4ccc(NC(=O)C5(C(=O)Nc6ccc(F)cc6)CC5)cc4F)c3s2)nc1	302	374	414
COc1ccc(/C=C\c2cc(OC)c(OC)c(OC)c2)cc1NC(=O)[C@H](N)CO	542	521	594
c1coc(CNc2ncnc3nc[nH]c23)c1	409	565	556
Cc1c(F)cc(C(=O)NC2CC2)cc1-c1c(F)cn2c(C(C)(C)C)nnc2c1F	482	469	507
N[S+](=O)([O-])c1cc2c(cc1Cl)NCN[S+]2(=O)[O-]	480	430	563
Cc1cnc(-c2cc(N3CCN(C(=O)CC[S+](C)(=O)[O-])CC3)ncc2Cl)c(C)c1	536	551	534
CC(C)(Sc1cc(C(C)(C)C)c(O)c(C(C)(C)C)c1)Sc1cc(C(C)(C)C)c(O)c(C(C)(C)C)c1	550	601	652

Compound	area under concentration-response curve (CU-ACC1)	area under concentration-response curve (NCI-H295R)	area under concentration-response curve (CU-ACC2)
O=[S+]([O-])(c1cccc2cnccc12)N1CCCNCC1	502	534	560
COc1ccc(C2CNC(=O)C2)cc1OC1CCCC1 (stereo unspecified)	451	501	538
O=C(CCCc1ccc2cccnc2n1)NCc1cc(-c2ccc(F)c(C(F)(F)F)c2)no1	512	491	615
C[C@]\1(CCS\C(=N1)N)C2=CC(=C(F)C=C2F)C3=CN=CN=C3	478	509	544
CC(=O)C1CCC2C3CC\C4=C\C(=O)CCC4(C)C3CCC12C (stereo unspecified)	548	607	645
Cc1ccc(/C=N/NC(=O)c2ccccc2Oc2ccccc2)o1	440	421	491
C[C@@H](C1CC[C@@]2(O)C3=CC(=O)[C@@H]4C[C@@H](O)[C@@H](O)C[C@]4(C)[C@H]3CC[C@]12C)[C@H](O)CCC(C)(C)O (stereo partly specified)	411	424	488
CCCCNc1ncc2c(-c3ccc(CN4CCN(C)CC4)cc3)cn(C3CCC(O)CC3)c2n1 (stereo unspecified)	513	527	585
COc1ccc2cccc(CCNC(C)=O)c2c1	515	579	589
Cc1cccc(-c2nn(C(=S)Nc3ccccc3)cc2-c2ccnc3ccccc23)n1	506	470	590
OC1=C(Cl)C=C(N\C2=C(\C(=O)NC2=O)C3=C(C=CC=C3)[N+]([O-])=O)C=C1	502	507	475
CC(C)(C(=O)NCC(F)(F)C(F)(F)F)C(=O)N[C@@H]1C(=O)Nc2ccccc2-c2ccccc21	413	459	500
CC[C@@H](Oc1cccc(CN(CCCOc2ccc(OC)cc2)c2nc3ccccc3o2)c1)C(=O)O	562	519	571
O=C1[O][Pt]2([NH]C3CCCCC3[NH]2)[O]C1=O (stereo unspecified)	564	565	631
O=C(c1ccc(N[S+](=O)([O-])c2cccc3cccnc23)cc1)N1CCN(CC2CC2)CC1	485	527	486
COC1=C(F)C=C\2C(=C1)\N=C/3NNC(=C3\N=C2C4=CC=CC=C4Cl)/C	538	552	528
COC1(C[S+]([O-])c2ccccc2)CCN(CCc2c[nH]c3ccc(F)cc23)CC1 (stereo unspecified)	477	493	469
CCN(C(=O)C/1=C(O)/C2=C(C=CC=C2Cl)N(C)C1=O)C3=CC=CC=C3	489	555	566
CN(C)/N=N/c1nc[nH]c1C(N)=O	514	481	547
COCCCc1sc(-c2ccccc2)nc1C(=O)Nc1ccccc1-c1nc2cc(CN3CCCC3)cnc2s1	563	567	564
O=C1O[C@]2(CC[C@@H](C(=O)Nc3ccn(-c4ccccc4F)n3)CC2)c2cnccc21	492	494	602
CCN1/C(=C/C(C)=O)Sc2ccc(OC)cc21	467	515	569
C[C@H](NC(=O)Cc1cc(F)cc(F)c1)C(=O)N[C@H](C(=O)OC(C)(C)C)c1ccccc1	570	572	677
